# Like-named read-outs stand apart in the source and are kept apart here.
# What was measured:
# D. immitis L4 larvae = test: Dirofilaria immitis, L4 Stage (DiL4) In Vitro Assay; assay type: cell-based; conditions: for minimal effective concentration: Dirofilaria immitis, 72 h, read-out: DiL4 MED, Minimum Effective Dose, D. immitis L4 larvae motility, in vitro; for DiMf/DiL4: larval stage selectivity
# [1] = tested on: circulating microfilariae; test: Heartworm Positive Dog Studies
# [2] = tested on: circulating microfilariae; conditions: dog, in vivo
# [3] = tested on: microfilariae of Dirofilaria immitis; test: Dirofilaria immitis, Microfilaria (DiMf) In Vitro Assay; assay type: cell-based; conditions: Dirofilaria immitis, 72 h, read-out: DiMf MED, Minimum Effective Dose, D. immitis microfilariae motility, in vitro
# [4] = tested on: third stage larvae of Haemonchus contortus; test: Haemonchus contortus, Larvae Stage 3 (HcL3) In Vitro Assay; assay type: cell-based; conditions: Haemonchus contortus, 96 h
# [5] = read-out: HcL3 MED, Minimum Effective Dose, H. contortus third stage larvae, approximately 96 hours
# [6] = read-out: HcL3 MED, Haemonchus contortus third stage larvae in vitro, class mark appended to the Ex # in Table 3
# [7] = read-out: HcL3 MED, approximately 96 hours incubation, multiple-resistant field isolate
Molecule,minimal effective concentration [3] [µM],minimal effective concentration (D. immitis L4 larvae) [µM],DiMf/DiL4 (D. immitis L4 larvae; ratio of DiMf MED to DiL4 MED),"minimal effective concentration [4, 5] [µM]",other results
"CC(C)C[C@H]1C(=O)O[C@H](Cc2ccc(N3CCOCC3)cc2)C(=O)N(C)[C@@H](CC(C)C)C(=O)O[C@H](C)C(=O)N(C)[C@@H](CC(C)C)C(=O)O[C@H](Cc2ccc(N3CCOCC3)cc2)C(=O)N(C)[C@@H](CC(C)C)C(=O)O[C@H](C)C(=O)N1C [emodepside, Emodepside, reference compound]",,,,,"selectivity against D. immitis L4 (DiMf/DiL4) (D. immitis L4 larvae; ratio of DiMf MED to DiL4 MED): 1 ×; adverse effects / clinical observations ([1]; heartworm positive dogs, oral, emodepside 1 mg/kg, Example 3-9 3 mg/kg): all treated dogs exhibited adverse effects consistent with dead or dying circulating microfilariae; Mean MF/mL, Day 0, Post-dose, 2 hours ([1]; heartworm positive dogs, oral, emodepside 1 mg/kg, Example 3-9 3 mg/kg, 2 hours post-dose, blood): 8,300 MF/mL; Mean MF/mL, Day 0 Pre-dose ([1]; heartworm positive dogs, oral, emodepside 1 mg/kg, Example 3-9 3 mg/kg, Day 0 pre-dose, blood): 61,000 MF/mL; Mean MF/mL, Day 1 ([1]; heartworm positive dogs, oral, emodepside 1 mg/kg, Example 3-9 3 mg/kg, Day 1, blood): 4,500 MF/mL; Mean MF/mL, Day 7 ([1]; heartworm positive dogs, oral, emodepside 1 mg/kg, Example 3-9 3 mg/kg, Day 7, blood): 8,800 MF/mL; % Reduction of MF, Day 0, Post-dose, 2 hours ([1]; vs pre-dose (day 0) levels, oral, emodepside 1 mg/kg, Example 3-9 3 mg/kg, 2 hours post-dose): 87%; % Reduction of MF, Day 0, Post-dose, 2 hours ([1]; vs pre-dose (day 0) levels, oral, emodepside 1 mg/kg, Example 3-9 3 mg/kg, 2 hours post-dose, listed as Emodepside): 87%; % Reduction of MF, Day 1 ([1]; vs pre-dose (day 0) levels, oral, emodepside 1 mg/kg, Example 3-9 3 mg/kg, Day 1): 93%; % Reduction of MF, Day 7 ([1]; vs pre-dose (day 0) levels, oral, emodepside 1 mg/kg, Example 3-9 3 mg/kg, Day 7): 86%"
"(3S,6R,9S,12R,15S,18R,21S,24R)-6-benzyl-18-(4-(hydroxy(6-methoxypyridin-3-yl)methyl)benzyl)-3,9,15,21-tetraisobutyl-4,10,12,16,22,24-hexamethyl-1,7,13,19-tetraoxa-4,10,16,22-tetraazacyclotetracosan-2,5,8,11,14,17,20,23-octaone [Example 3-9]",,,,,"adverse effects / clinical observations [2]: no adverse effects observed; % Reduction of MF, Day 0, Post-dose, 2 hours ([1]; dog, in vivo): −11%; % Reduction of MF, Day 1 ([1]; dog, in vivo): −28%; % Reduction of MF, Day 7 ([1]; dog, in vivo): −50%; Mean MF/mL, Day 0, Post-dose, 2 hours ([1]; dog, in vivo): 20,000 MF/mL; Mean MF/mL, Day 0 Pre-dose ([1]; dog, in vivo): 18,000 MF/mL; Mean MF/mL, Day 1 ([1]; dog, in vivo): 23,000 MF/mL; Mean MF/mL, Day 7 ([1]; dog, in vivo): 25,000 MF/mL; % Reduction of MF, Day 14 ([1]; dog, in vivo, po, 3 mg/kg): −22%; % Reduction of MF, Day 21 ([1]; dog, in vivo, po, 3 mg/kg): −33%; Mean MF/mL, Day 14 ([1]; dog, in vivo, po, 3 mg/kg): 22,000 MF/mL; Mean MF/mL, Day 21 ([1]; dog, in vivo, po, 3 mg/kg): 24,000 MF/mL"
"CC(C)C[C@H]1C(=O)O[C@H](Cc2ccc(Cc3cnc(N4CCOCC4)nc3)cc2)C(=O)N(C)[C@@H](CC(C)C)C(=O)O[C@H](C)C(=O)N(C)[C@@H](CC(C)C)C(=O)O[C@H](Cc2ccc(Cc3cnc(N4CCOCC4)nc3)cc2)C(=O)N(C)[C@@H](CC(C)C)C(=O)O[C@H](C)C(=O)N1C [Example 3-178, (3S,6R,9S,12R,15S,18R,21S,24R)-3,9,15,21-tetraisobutyl-4,6,10,16,18,22-hexamethyl-12,24-bis(4-((2-morpholinopyrimidin-5-yl)methyl)benzyl)-1,7,13,19-tetraoxa-4,10,16,22-tetraazacyclotetracosan-2,5,8,11,14,17,20,23-octaone]",0.001,0.001,1,> 100,
"CC(C)C[C@H]1C(=O)O[C@H](Cc2ccc([C@H](F)c3nccs3)cc2)C(=O)N(C)[C@@H](CC(C)C)C(=O)O[C@H](C)C(=O)N(C)[C@@H](CC(C)C)C(=O)O[C@H](Cc2ccc([C@@H](F)c3nccs3)cc2)C(=O)N(C)[C@@H](CC(C)C)C(=O)O[C@H](C)C(=O)N1C [Example 3-285, (3S,6R,9S,12R,15S,18R,21S,24R)-6-(4-((R)-fluoro(thiazol-2-yl)methyl)benzyl)-18-(4-((S)-fluoro(thiazol-2-yl)methyl)benzyl)-3,9,15,21-tetraisobutyl-4,10,12,16,22,24-hexamethyl-1,7,13,19-tetraoxa-4,10,16,22-tetraazacyclotetracosan-2,5,8,11,14,17,20,23-octaone]",0.003,0.0005,6,5.7,
"Cc1ncsc1Cc1ccc(C[C@H]2OC(=O)[C@H](CC(C)C)N(C)C(=O)[C@@H](C)OC(=O)[C@H](CC(C)C)N(C)C(=O)[C@@H](Cc3ccc(Cc4scnc4C)cc3)OC(=O)[C@H](CC(C)C)N(C)C(=O)[C@@H](C)OC(=O)[C@H](CC(C)C)N(C)C2=O)cc1 [Example 3-155, (3S,6R,9S,12R,15S,18R,21S,24R)-3,9,15,21-tetraisobutyl-4,6,10,16,18,22-hexamethyl-12,24-bis(4-((4-methylthiazol-5-yl)methyl)benzyl)-1,7,13,19-tetraoxa-4,10,16,22-tetraazacyclotetracosan-2,5,8,11,14,17,20,23-octaone]",0.0001,2e-05,5,0.5,"minimal effective concentration [4, 6]: < 1 µM; minimal effective concentration [4, 7]: ≤ 1 µM"
"CC(C)C[C@H]1C(=O)O[C@H](Cc2ccc(Cc3scnc3Cl)cc2)C(=O)N(C)[C@@H](CC(C)C)C(=O)O[C@H](C)C(=O)N(C)[C@@H](CC(C)C)C(=O)O[C@H](Cc2ccccc2)C(=O)N(C)[C@@H](CC(C)C)C(=O)O[C@H](C)C(=O)N1C [Example 4-107, (3S,6R,9S,12R,15S,18R,21S,24R)-6-benzyl-18-(4-((4-chlorothiazol-5-yl)methyl)benzyl)-3,9,15,21-tetraisobutyl-4,10,12,16,22,24-hexamethyl-1,7,13,19-tetraoxa-4,10,16,22-tetraazacyclotetracosan-2,5,8,11,14,17,20,23-octaone]",0.003,0.0002,15,0.3,"minimal effective concentration ([4]; read-out: HcL3 MED (symbol after Ex#), approximately 96 hours incubation, multiple-resistant field isolate): < 1 µM; minimal effective concentration [4, 7]: ≤ 1 µM"
"CC(C)C[C@H]1C(=O)O[C@H](Cc2ccc(Cc3cncc(F)c3)cc2)C(=O)N(C)[C@@H](CC(C)C)C(=O)O[C@H](C)C(=O)N(C)[C@@H](CC(C)C)C(=O)O[C@H](Cc2ccc(Cc3cncc(F)c3)cc2)C(=O)N(C)[C@@H](CC(C)C)C(=O)O[C@H](C)C(=O)N1C [Example 3-194, (3S,6R,9S,12R,15S,18R,21S,24R)-6,18-bis(4-((5-fluoropyridin-3-yl)methyl)benzyl)-3,9,15,21-tetraisobutyl-4,10,12,16,22,24-hexamethyl-1,7,13,19-tetraoxa-4,10,16,22-tetraazacyclotetracosan-2,5,8,11,14,17,20,23-octaone]",0.001,0.001,1,> 100,
"COc1ncc(F)cc1Cc1ccc(C[C@H]2OC(=O)[C@H](CC(C)C)N(C)C(=O)[C@@H](C)OC(=O)[C@H](CC(C)C)N(C)C(=O)[C@@H](Cc3ccc(Cc4cc(F)cnc4OC)cc3)OC(=O)[C@H](CC(C)C)N(C)C(=O)[C@@H](C)OC(=O)[C@H](CC(C)C)N(C)C2=O)cc1 [Example 3-293, (3S,6R,9S,12R,15S,18R,21S,24R)-6,18-bis(4-((5-fluoro-2-methoxypyridin-3-yl)methyl)benzyl)-3,9,15,21-tetraisobutyl-4,10,12,16,22,24-hexamethyl-1,7,13,19-tetraoxa-4,10,16,22-tetraazacyclotetracosan-2,5,8,11,14,17,20,23-octaone]",0.05,0.0003,167,5.7,
"CC(C)C[C@H]1C(=O)O[C@H](Cc2ccc(Cc3cccnc3N(C)C)cc2)C(=O)N(C)[C@@H](CC(C)C)C(=O)O[C@H](C)C(=O)N(C)[C@@H](CC(C)C)C(=O)O[C@H](Cc2ccc(Cc3cccnc3N(C)C)cc2)C(=O)N(C)[C@@H](CC(C)C)C(=O)O[C@H](C)C(=O)N1C [Example 3-176, (3S,6R,9S,12R,15S,18R,21S,24R)-6,18-bis(4-((2-(dimethylamino)pyridin-3-yl)methyl)benzyl)-3,9,15,21-tetraisobutyl-4,10,12,16,22,24-hexamethyl-1,7,13,19-tetraoxa-4,10,16,22-tetraazacyclotetracosan-2,5,8,11,14,17,20,23-octaone]",0.004,0.0003,13.3,1.2,"minimal effective concentration [4, 6]: 1 to 3.3 µM"
